Laboratory results published in patent publication US5045566A, “Novel imidate insecticides” (ICI Americas Inc., priority 1989, dated 1991).

Assays:
Assay type in all cases: in vivo
[1] = tested on: Housefly [Musca domestica]; assay: Housefly contact mortality in dishes (HF), 48 hours; conditions: μg of test compound per 25 female flies
Description: (§1) The compounds in Tables 1 and 2 above were tested for insecticidal activity using the following testing procedures. LC50 values, based on the results of these tests and calculated according to dosage-mortality curves, are expressed in Table 3.
Housefly [Musca domestica]:
Test compounds were diluted in acetone and aliquots pipetted onto the bottom of aluminum dishes. To ensure even spreading of the chemical on the bottom of the dishes, 1 ml of acetone containing 0.01% peanut oil was also added to each dish. After all solvents had evaporated, the dishes were placed in circular cardboard cages containing 25 female houseflies, 1-2 days old. The cages were covered on the bottom with cellophane and on the top with tulle netting, and each contained a sugar-water saturated cotton plug for maintenance of the flies. Mortality was recorded after 48 hours. Test levels ranged from 100 μg/25 female houseflies downward. The LC-50 value is expressed below in Table 3 under the heading "HF", in terms of μg of the test compound per 25 female flies.

[2] = tested on: Black Bean Aphid [Aphis fabae (Scop.)]; assay: Black bean aphid spray test on nasturtium (BBA), 48 hours; conditions: percent of test compound in sprayed solution
Description: as §1
Black Bean Aphid [Aphis fabae (Scop.)]:
Nasturtium plants (Tropaeolum sp.) approximately 5 cm tall, were transplanted into sandy loam soil in small cups and infested with 25-50 black bean aphids of mixed ages. Twenty-four hours later they were sprayed to the point of runoff with 50-50 acetone-water solutions of the test compounds. Treated plants were held in the greenhouse and mortality was recorded after 48 hours. Test concentrations ranged from 0.05% downward. The LC-50 value is expressed below in Table 3 under the heading "BBA" in terms of percent of the test compound in the sprayed solution.

[3] = tested on: Tobacco Budworm [Heliothis virescens (Fabricius)] eggs; assay: Tobacco budworm eggs (TBW-E); conditions: percent in solution; 2-day old eggs
Description: as §1
Tobacco Budworm [Heliothis virescens (Fabricius)]:
(b). Eggs: Paper towel patches of 2-day old eggs of the tobacco budworm were dipped in acetone solutions of the test compound and placed in petri dishes containing a portion of larval rearing medium. Treated eggs were maintained at 78° F. and mortality was recorded after all control eggs had hatched and the young larvae were feeding on the media. Test concentrations ranged from 0.1% downward. The LC-50 value is expressed below in Table 3 under the heading "TBW-E" in terms of percent of the test compound in the solution.

[4] = tested on: Cabbage Looper [Trichoplusia ni (Hubner)]; assay: Cabbage looper leaf dip (CL), 3-5 days; conditions: percent in solution, second-instar larvae
Description: as §1
Cabbage Looper [Trichoplusia ni (Hubner)]:
Test compounds were diluted in a 50-50 acetone-water solution. Cotyledons of hyzini squash (Calabacita abobrinha), approximately 1×1.5 inches, were immersed in the test solutions for 2-3 seconds and placed on a wire screen to dry. The dried leaves were placed in petri dishes containing a moistened piece of filter paper and infested with 5 second-instar cabbage looper larvae. The dishes were placed in a high humidity chamber. Mortality of the larvae was recorded 3-5 days later. Test concentrations ranged from 0.1% downward. The LC-50 value is expressed below in Table 3 under the heading "CL" in terms of percent of the test compound in solution.

Structure (SMILES)	LC50 HF [1] [µg]	LC50 BBA [2] [%]	LC50 TBW E (eggs) [3] [%]	LC50 CL [4] [%]
COC(C)C(=Nc1ccc(Cl)cc1)OCc1cccc(Oc2ccccc2)c1 (stereo not drawn) [Compound 22]	15	0.01	0.08	0.004
Cc1ccc(Cl)cc1N=C(OCc1cccc(Oc2ccccc2)c1)C(C)C [Compound 263]	> 100	> 0.05	> 0.1	0.05
Cc1ccc(C)c(N=C(OCc2cccc(Oc3ccccc3)c2)C(C)C)c1 [Compound 250]	38	0.0006	0.038	0.004
CC(C)(C)C(=Nc1ccc(Cl)c([N+](=O)[O-])c1)OCc1cccc(Oc2ccccc2)c1 [Compound 105]	> 100	0.05	> 0.1	0.018
CCOC(=O)c1cccc(N=C(OCc2cccc(Oc3ccccc3)c2)C(C)(C)C)c1 [Compound 168]	> 100	> 0.05	> 0.1	0.1
COc1ccc(N=C(OCc2cccc(Oc3ccccc3)c2)C(C)C)c(C)c1 [Compound 149]	17	0.001	0.05	0.007
C=CCOc1cccc(COC(=Nc2cccc(C(F)(F)F)c2)C(C)C)c1 [Compound 480]	> 100	> 0.05	> 0.1	0.01
CC(C)C(=Nc1ccc(F)c(Cl)c1)OCc1cccc(Oc2cc(F)cc(F)c2)c1 [Compound 215]	75	0.05	> 0.1	0.00075
CC(C)C(=Nc1cccc(SC(F)(F)F)c1)OCc1cccc(Oc2ccc(F)cc2)c1 [Compound 272]	> 100	> 0.05	> 0.1	0.0024
CC(C)C(=Nc1ccc(F)c(Cl)c1)OCc1cccc(Oc2ccncc2)c1 [Compound 470]	25	> 0.05	> 0.1	0.02
Cc1c(COC(=Nc2ccc(Cl)cc2)C(C)C)cccc1-c1ccccc1 [Compound 455]	> 100	0.01	> 0.1	0.0025
Cc1cc(Cl)ccc1N=C(OCc1cccc(Oc2ccccc2)c1)C(C)(C)C [Compound 109]	> 100	> 0.05	> 0.1	0.002
FC(F)(F)c1cccc(N=C(OCc2cccc(Oc3ccccc3)c2)C2CC2)c1 [Compound 86]	65	< 0.05	–	0.013
CC(C)C(=Nc1ccc(F)c(F)c1)OCc1coc(Cc2ccccc2)c1 [Compound 485]	24	–	> 0.1	> 0.1
CC(C)(F)C(=Nc1ccc(F)c(Cl)c1)OCc1cccc(Oc2ccc(F)cc2)c1 [Compound 309]	> 100	–	0.07	0.00017
CCC(C)C(=Nc1ccc2c(c1)OCO2)OCc1cccc(Oc2ccccc2)c1 (stereo not drawn) [Compound 185]	13	–	0.075	0.0006
CC(C)C(=Nc1ccc(Cl)c(Cl)c1)OCc1cccc(Oc2cccc(Cl)c2)c1 [Compound 207]	> 100	–	> 0.1	0.008
CCC(CC)C(=Nc1cccc(C(F)(F)F)c1)OCc1cccc(Oc2ccc(F)cc2)c1 [Compound 291]	> 100	–	> 0.1	0.004
C=CCOc1cccc(COC(=Nc2ccc(Cl)c(Cl)c2)C(C)C)c1 [Compound 481]	> 100	–	> 0.1	0.015
CC(Cl)C(=Nc1ccc(Cl)c(Cl)c1)OCc1cccc(Oc2ccccc2)c1 (stereo not drawn) [Compound 27]	> 100	–	> 0.1	0.04
CCC(=Nc1ccc(F)c(Cl)c1)OCc1cccc(Oc2ccc(F)cc2)c1 [Compound 115]	10	–	0.075	0.0012

Structure (SMILES)	LC50 HF [1] [µg]	LC50 BBA [2] [%]	LC50 TBW E (eggs) [3] [%]	LC50 CL [4] [%]
Cc1ccc(Oc2cccc(COC(=Nc3ccc(F)c(Cl)c3)C(C)C)n2)cc1 [Compound 494]	34	–	> 0.1	0.003
CC(C)C(=Nc1ccc2c(c1)OC(C)(C)O2)OCc1cccc(Oc2ccccc2)c1 [Compound 182]	28	–	0.04	0.0006
CC(C)C(=Nc1ccc(Cl)c(C(F)(F)F)c1)OCc1cccc(Oc2cccc(F)c2)c1 [Compound 195]	> 100	–	> 0.1	0.002
Cc1ccc(Oc2cccc(COC(=Nc3cccc(C(F)(F)F)c3)C(C)C)n2)cc1 [Compound 495]	> 100	–	0.1	0.012
CCCCC(=Nc1ccc(F)c(Cl)c1)OCc1cccc(Oc2ccccc2)c1 [Compound 121]	> 100	–	> 0.1	0.1
CC(C)C(=Nc1ccc(Cl)c(Cl)c1)OCc1cccc(Oc2cccc(F)c2)c1 [Compound 40]	36	–	0.08	0.0025
CCCC(=Nc1ccc(Cl)c(Cl)c1)OCc1cccc(Oc2ccccc2)c1 [Compound 38]	33	–	0.05	0.006
CCCC(=Nc1ccc(OC)cc1)OCc1cccc(Oc2ccccc2)c1 [Compound 184]	61	–	> 0.1	0.024
CC(C)C(=Nc1cccc(C(F)(F)F)c1)OCc1cccc(Oc2cccc(F)c2)c1 [Compound 192]	25	–	0.07	0.0012
CC(C)C(=Nc1ccc(C2CCCCC2)cc1)OCc1cccc(Oc2ccc(F)cc2)c1 [Compound 280]	> 100	–	> 0.1	0.024
CC(C)C(=Nc1ccc(F)c(Cl)c1)OCc1ccc(OCc2ccc(F)cc2)cc1 [Compound 487]	> 100	–	> 0.1	0.023
CCC(=Nc1ccc(C(C)C)cc1)OCc1cccc(Oc2ccc(F)cc2)c1 [Compound 320]	> 100	–	> 0.1	0.0075
CC(C)C(=Nc1ccc(C(F)(F)F)cc1)OCc1ccc(F)c(Oc2ccc(F)cc2)c1 [Compound 287]	> 100	–	> 0.1	0.0025
CCC(C)C(=Nc1ccc(Cl)cc1)OCc1cccc(Oc2ccccc2)c1 (stereo not drawn) [Compound 26]	> 100	–	> 0.1	0.007
FC(F)(F)c1ccc(Oc2ccc(COC(=Nc3ccc(Cl)cc3)C(Cl)Cl)cc2)nc1 [Compound 453]	> 100	> 0.05	–	0.1
CC(C)C(=Nc1ccc2c(c1)OCO2)OCc1cccc(Oc2ccccc2F)c1 [Compound 190]	7.5	–	0.023	0.0004
CC(C)C(=Nc1ccc(C(C)(C)C)cc1)OCc1cccc(Oc2ccc(Cl)cc2)n1 [Compound 497]	> 100	–	> 0.1	0.0075
COc1cccc(N=C(OCc2cccc(Oc3ccc(F)cc3)c2)C(C)C)c1 [Compound 201]	15	–	> 0.1	0.004
CCC(=Nc1ccc(Cl)c(Cl)c1)OCc1cccc(Oc2ccccc2)c1 [Compound 36]	20	–	> 0.1	0.024
CC(C)C(=Nc1ccc(C(C)(C)C)c(Cl)c1)OCc1cccc(Oc2ccc(F)cc2)c1 [Compound 308]	> 100	–	> 0.1	0.009
